# PubChem BioAssay AID2060487 (Molecular Pharmacology Branch, DTP, NCI, 2025)
# Test system: 997537-175-T-J1-PDC complex spheroid viability
# Assay: Anticancer human tumor 997537-175-T-J1-PDC patient-derived colon adenocarcinoma cell line growth inhibition [GQUAD]
# Conditions: for IC50: curve of first compound; for viability, T/C: stronger effect = lower value
# Procedure, shortened: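 Tumor cells were grown as complex spheroids with HUVEC endothelial cells and mesenchymal stem cells as stroma. G-quadruplex stabilizers were combined with targeted agents over half-log dilutions from near the clinical Cmax, or from 10 microM.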
# [1] = second compound 0.0316 µM, first compound 0.0316 µM
# [2] = second compound 0.0316 µM, first compound 0.1 µM
# [3] = second compound 0.0316 µM, first compound 0.316 µM
# [4] = second compound 0.0316 µM, first compound 1 µM
# [5] = second compound 0.0316 µM, first compound 3.16 µM
# [6] = second compound 0.0316 µM, first compound 10 µM
# [7] = second compound 0.1 µM, first compound 0.0316 µM
# [8] = second compound 0.1 µM, first compound 0.1 µM
# [9] = second compound 0.1 µM, first compound 0.316 µM
# [10] = second compound 0.1 µM, first compound 1 µM
# [11] = second compound 0.1 µM, first compound 3.16 µM
# [12] = second compound 0.1 µM, first compound 10 µM
# [13] = second compound 0.316 µM, first compound 0.0316 µM
# [14] = second compound 0.316 µM, first compound 0.1 µM
# [15] = second compound 0.316 µM, first compound 0.316 µM
# [16] = second compound 0.316 µM, first compound 1 µM
# [17] = second compound 0.316 µM, first compound 3.16 µM
# [18] = second compound 0.316 µM, first compound 10 µM
# [19] = second compound 1 µM, first compound 0.0316 µM
# [20] = second compound 1 µM, first compound 0.1 µM
# [21] = second compound 1 µM, first compound 0.316 µM
# [22] = second compound 1 µM, first compound 1 µM
# [23] = second compound 1 µM, first compound 3.16 µM
# [24] = second compound 1 µM, first compound 10 µM
# [25] = second compound 3.16 µM, first compound 0.0316 µM
# [26] = second compound 3.16 µM, first compound 0.1 µM
# [27] = second compound 3.16 µM, first compound 0.316 µM
# [28] = second compound 3.16 µM, first compound 1 µM
# [29] = second compound 3.16 µM, first compound 3.16 µM
# [30] = second compound 3.16 µM, first compound 10 µM
# [31] = second compound 10 µM, first compound 0.0316 µM
# [32] = second compound 10 µM, first compound 0.1 µM
# [33] = second compound 10 µM, first compound 0.316 µM
# [34] = second compound 10 µM, first compound 1 µM
# [35] = second compound 10 µM, first compound 3.16 µM
# [36] = second compound 10 µM, first compound 10 µM
# 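Further: spheroids exposed to the agents for 7 days.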
# 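Wherever viability, T/C is given: 100% = DMSO vehicle control viability.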
smiles,measurement,setting,value
Nc1ccn(C2OC(CO)C(O)C2(F)F)c(=O)n1 (stereo not drawn) + Cc1[nH]c2ccc(F)cc2c1-c1nc2c3cccnc3c3ncccc3c2[nH]1,IC50,second compound 0.0316 µM,> 10 µM
same,IC50,second compound 0.1 µM,> 10 µM
same,IC50,second compound 0.316 µM,> 10 µM
same,IC50,second compound 1 µM,> 10 µM
same,IC50,second compound 3.16 µM,> 10 µM
same,IC50,second compound 10 µM,> 10 µM
same,"viability, T/C",[1],106%
same,"viability, T/C",[2],82.5%
same,"viability, T/C",[3],98.7%
same,"viability, T/C",[4],80.1%
same,"viability, T/C",[5],86.2%
same,"viability, T/C",[6],97.4%
same,"viability, T/C",[7],107%
same,"viability, T/C",[8],87.2%
same,"viability, T/C",[9],91.5%
same,"viability, T/C",[10],74.2%
same,"viability, T/C",[11],87.4%
same,"viability, T/C",[12],87.5%
same,"viability, T/C",[13],99.2%
same,"viability, T/C",[14],84.6%
same,"viability, T/C",[15],84.1%
same,"viability, T/C",[16],73.9%
same,"viability, T/C",[17],90.4%
same,"viability, T/C",[18],70.2%
same,"viability, T/C",[19],103%
same,"viability, T/C",[20],96.3%
same,"viability, T/C",[21],94.7%
same,"viability, T/C",[22],98.2%
same,"viability, T/C",[23],82.6%
same,"viability, T/C",[24],93.5%
same,"viability, T/C",[25],77.4%
same,"viability, T/C",[26],69%
same,"viability, T/C",[27],76%
same,"viability, T/C",[28],73.1%
same,"viability, T/C",[29],83%
same,"viability, T/C",[30],84.8%
same,"viability, T/C",[31],78.3%
same,"viability, T/C",[32],81.4%
same,"viability, T/C",[33],90.4%
same,"viability, T/C",[34],87.2%
same,"viability, T/C",[35],80.1%
same,"viability, T/C",[36],87.5%
COc1cc(C2c3cc4c(cc3C(OC3OC5COC(C)OC5C(O)C3O)C3COC(=O)C23)OCO4)cc(OC)c1O (stereo not drawn) + CN(C)c1ccc(Nc2c3ccc(NC(=O)CCN4CCCC4)cc3nc3cc(NC(=O)CCN4CCCC4)ccc23)cc1,IC50,second compound 0.0316 µM,> 10 µM
same,IC50,second compound 0.1 µM,> 10 µM
same,IC50,second compound 0.316 µM,> 10 µM
same,IC50,second compound 1 µM,> 10 µM
same,IC50,second compound 3.16 µM,> 10 µM
same,IC50,second compound 10 µM,> 10 µM
same,"viability, T/C",[1],93.8%
same,"viability, T/C",[2],105%
same,"viability, T/C",[3],96.5%
same,"viability, T/C",[4],78.6%
same,"viability, T/C",[5],74.1%
same,"viability, T/C",[6],74.7%
same,"viability, T/C",[7],113%
same,"viability, T/C",[8],105%
same,"viability, T/C",[9],101%
same,"viability, T/C",[10],81.2%
same,"viability, T/C",[11],95.2%
same,"viability, T/C",[12],65.7%
same,"viability, T/C",[13],97.2%
same,"viability, T/C",[14],96.6%
same,"viability, T/C",[15],91.4%
same,"viability, T/C",[16],87.1%
same,"viability, T/C",[17],92.3%
same,"viability, T/C",[18],64.8%
same,"viability, T/C",[19],89.1%
same,"viability, T/C",[20],110%
same,"viability, T/C",[21],90.2%
same,"viability, T/C",[22],75.1%
same,"viability, T/C",[23],91.2%
same,"viability, T/C",[24],55.2%
same,"viability, T/C",[25],78.7%
same,"viability, T/C",[26],102%
same,"viability, T/C",[27],76.7%
same,"viability, T/C",[28],95.2%
same,"viability, T/C",[29],83.2%
same,"viability, T/C",[30],72.3%
same,"viability, T/C",[31],79.7%
same,"viability, T/C",[32],108%
same,"viability, T/C",[33],99.9%
same,"viability, T/C",[34],87.2%
same,"viability, T/C",[35],89.8%
same,"viability, T/C",[36],67.4%
Cc1cccc(N(C)C(=O)C2C(O)CCN2c2nc(C)cc(C(F)(F)F)c2C#N)c1 (stereo not drawn) + Cc1cnc(CNC(=O)c2c(=O)c3ccc(N4CCCN(C)CC4)nc3n3c2sc2ccccc23)cn1,IC50,second compound 0.0316 µM,> 10 µM
same,IC50,second compound 0.1 µM,> 10 µM
same,IC50,second compound 0.316 µM,> 10 µM
same,IC50,second compound 1 µM,> 10 µM
same,IC50,second compound 3.16 µM,> 10 µM
same,IC50,second compound 10 µM,> 10 µM
same,"viability, T/C",[1],82.4%
same,"viability, T/C",[2],80.5%
same,"viability, T/C",[3],89.2%
same,"viability, T/C",[4],97.2%
same,"viability, T/C",[5],82.3%
same,"viability, T/C",[6],98.5%
same,"viability, T/C",[7],102%
same,"viability, T/C",[8],94.2%
same,"viability, T/C",[9],94.2%
same,"viability, T/C",[10],67%
same,"viability, T/C",[11],88.6%
same,"viability, T/C",[12],92.4%
same,"viability, T/C",[13],93.7%
same,"viability, T/C",[14],75.2%
same,"viability, T/C",[15],99.5%
same,"viability, T/C",[16],73.8%
same,"viability, T/C",[17],112%
same,"viability, T/C",[18],84.3%
same,"viability, T/C",[19],94.6%
same,"viability, T/C",[20],98.5%
same,"viability, T/C",[21],87.8%
same,"viability, T/C",[22],88.4%
same,"viability, T/C",[23],106%
same,"viability, T/C",[24],99.7%
same,"viability, T/C",[25],77.3%
same,"viability, T/C",[26],103%
same,"viability, T/C",[27],96%
same,"viability, T/C",[28],93.4%
same,"viability, T/C",[29],107%
same,"viability, T/C",[30],87.7%
same,"viability, T/C",[31],85.1%
same,"viability, T/C",[32],114%
same,"viability, T/C",[33],98.3%
same,"viability, T/C",[34],95%
same,"viability, T/C",[35],96.9%
same,"viability, T/C",[36],86.7%
CC1COCCN1c1cc(-c2ccnn2C)c2ccnc(-c3ccn[nH]3)c2n1 (stereo not drawn) + Cc1[nH]c2ccc(F)cc2c1-c1nc2c3cccnc3c3ncccc3c2[nH]1,IC50,second compound 0.0316 µM,0.209 µM
same,IC50,second compound 0.1 µM,0.287 µM
same,IC50,second compound 0.316 µM,0.288 µM
same,IC50,second compound 1 µM,0.376 µM
same,IC50,second compound 3.16 µM,0.179 µM
same,IC50,second compound 10 µM,0.113 µM
same,"viability, T/C",[1],82.8%
same,"viability, T/C",[2],66.7%
same,"viability, T/C",[3],36.5%
same,"viability, T/C",[4],28.3%
same,"viability, T/C",[5],35%
same,"viability, T/C",[6],62.5%
same,"viability, T/C",[7],86.1%
same,"viability, T/C",[8],64.5%
same,"viability, T/C",[9],57.3%
same,"viability, T/C",[10],24.7%
same,"viability, T/C",[11],37.3%
same,"viability, T/C",[12],46.5%
same,"viability, T/C",[13],76.7%
same,"viability, T/C",[14],58.5%
same,"viability, T/C",[15],57.4%
same,"viability, T/C",[16],32.5%
same,"viability, T/C",[17],36.4%
same,"viability, T/C",[18],46.4%
same,"viability, T/C",[19],60.4%
same,"viability, T/C",[20],56.1%
same,"viability, T/C",[21],51.6%
same,"viability, T/C",[22],21.6%
same,"viability, T/C",[23],42.6%
same,"viability, T/C",[24],57.9%
same,"viability, T/C",[25],54.8%
same,"viability, T/C",[26],70.2%
same,"viability, T/C",[27],29.2%
same,"viability, T/C",[28],40.8%
same,"viability, T/C",[29],33.8%
same,"viability, T/C",[30],47%
same,"viability, T/C",[31],65.8%
same,"viability, T/C",[32],55.3%
same,"viability, T/C",[33],36.4%
same,"viability, T/C",[34],42.5%
same,"viability, T/C",[35],52.3%
same,"viability, T/C",[36],47.9%
